Earlier results as cited in patent US20070184110A1, “Dipyridamole extended-release formulations and process for preparing same” (priority 2006, published 2007).

Settings: above a pH of 4

solubility in water: practically insoluble
Compound: OCCN(CCO)c1nc(N2CCCCC2)c2nc(N(CCO)CCO)nc(N3CCCCC3)c2n1 [Dipyridamole, 2,6-bis-(diethanolamino)-4,8-dipiperidino-(5,4-d)-pyrimidine]
